Reference: patent publication US20160083357A1, “NOVEL TETRAZOLONE DERIVATIVES” (Hoffmann-La Roche Inc., priority 2013, published 2016)

Experiments:
human CB2 receptors = molecular target: T1, human CB2 receptors (Homo sapiens, UniProt P34972); test: cAMP assay, human CB2; assay type: cell-based; conditions: functional cAMP assay, CHO cells expressing human CB2; read-out: Ec50: CB2 - hu cAMP
T1 construct: expressed in transfected cells; host or cells: CHO cells
How it was run: (§1)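 CHO cells expressing human CB1 or CB2, preincubated in Krebs Ringer bicarbonate with 1 mM IBMX, then compound for 30 min at 30° C. cAMP quantified by time-resolved FRET (cAMP-Nano-TRF) against a cAMP standard curve; EC50 values derived.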

human CB1 receptors = molecular target: T2, human CB1 receptors (Homo sapiens, UniProt P21554); test: cAMP assay, human CB1; assay type: cell-based; conditions: functional cAMP assay, CHO cells expressing human CB1; read-out: Ec50: CB1 - hu cAMP
T2 construct: expressed in transfected cells; host or cells: CHO cells
How it was run: as §1

T2 sequence (P21554 whole entry): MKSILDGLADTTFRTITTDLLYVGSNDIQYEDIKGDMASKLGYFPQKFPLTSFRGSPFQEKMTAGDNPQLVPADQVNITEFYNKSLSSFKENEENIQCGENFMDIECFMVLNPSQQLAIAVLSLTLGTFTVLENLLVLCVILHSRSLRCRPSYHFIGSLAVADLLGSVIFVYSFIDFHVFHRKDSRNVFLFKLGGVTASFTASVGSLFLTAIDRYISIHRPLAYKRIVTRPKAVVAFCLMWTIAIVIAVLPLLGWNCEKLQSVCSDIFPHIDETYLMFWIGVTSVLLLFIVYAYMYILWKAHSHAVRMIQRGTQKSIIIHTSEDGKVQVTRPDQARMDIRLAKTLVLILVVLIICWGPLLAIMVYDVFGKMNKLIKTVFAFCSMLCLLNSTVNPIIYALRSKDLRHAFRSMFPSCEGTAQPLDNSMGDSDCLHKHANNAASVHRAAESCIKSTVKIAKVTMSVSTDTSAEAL
T1 sequence (P34972 whole entry): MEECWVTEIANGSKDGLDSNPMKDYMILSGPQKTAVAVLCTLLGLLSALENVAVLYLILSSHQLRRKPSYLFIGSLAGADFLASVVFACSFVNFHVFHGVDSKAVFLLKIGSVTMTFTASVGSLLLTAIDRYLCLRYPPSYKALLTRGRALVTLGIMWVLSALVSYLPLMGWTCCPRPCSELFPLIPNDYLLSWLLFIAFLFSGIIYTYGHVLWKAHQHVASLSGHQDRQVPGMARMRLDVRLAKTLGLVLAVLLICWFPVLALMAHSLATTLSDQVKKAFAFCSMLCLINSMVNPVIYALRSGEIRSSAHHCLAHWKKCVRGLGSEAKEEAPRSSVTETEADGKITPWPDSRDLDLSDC

With O=C(N1CCOCC1)n1nnn(-c2cc(F)cc(F)c2)c1=O [Example 126, 1-(3,5-difluorophenyl)-4-(morpholine-4-carbonyl)tetrazol-5-one] the EC50 (human CB2 receptors) was 13 nM and the EC50 (human CB1 receptors) was greater than 10 µM.
In the case of Cc1cccc(-n2nnn(C(=O)N3CCOCC3)c2=O)c1 [Example 127, 1-(3-methylphenyl)-4-(morpholine-4-carbonyl)tetrazol-5-one], the EC50 (human CB2 receptors) is reported as 8.4 nM and the EC50 (human CB1 receptors) is reported as greater than 10 µM.
Cc1ccc(-n2nnn(C(=O)N3CCOCC3)c2=O)cc1 [Example 128, 1-(4-methylphenyl)-4-(morpholine-4-carbonyl)tetrazol-5-one] gave an EC50 (human CB2 receptors) of 6.6 nM and an EC50 (human CB1 receptors) greater than 10 µM.
Molecule COc1cccc(-n2nnn(C(=O)N3CCOCC3)c2=O)c1 [Example 129, 1-(3-methoxyphenyl)-4-(morpholine-4-carbonyl)tetrazol-5-one] has an EC50 (human CB2 receptors) of 9.1 nM and an EC50 (human CB1 receptors) greater than 10 µM.
COc1ccc(-n2nnn(C(=O)N3CCOCC3)c2=O)cc1 [Example 130, 1-(4-methoxyphenyl)-4-(morpholine-4-carbonyl)tetrazol-5-one] was tested, and the EC50 (human CB2 receptors) was 6.7 nM and the EC50 (human CB1 receptors) was greater than 10 µM.
With O=C(N1CCOCC1)n1nnn(-c2cccc(Cl)c2Cl)c1=O [Example 131, 1-(2,3-dichlorophenyl)-4-(morpholine-4-carbonyl)tetrazol-5-one] the EC50 (human CB2 receptors) was 16 nM and the EC50 (human CB1 receptors) was greater than 10 µM.
With Cn1ccc2c(-n3nnn(C(=O)N4CCOCC4)c3=O)cccc21 [Example 132, 1-(1-methylindol-4-yl)-4-(morpholine-4-carbonyl)tetrazol-5-one] the EC50 (human CB2 receptors) was 7.6 nM and the EC50 (human CB1 receptors) was greater than 10 µM.
Work on Cn1ccc2cc(-n3nnn(C(=O)N4CCOCC4)c3=O)ccc21 [Example 133, 1-(1-methylindol-5-yl)-4-(morpholine-4-carbonyl)tetrazol-5-one] yielded an EC50 (human CB2 receptors) of 18 nM and an EC50 (human CB1 receptors) greater than 10 µM.
In the case of Cn1ccc2ccc(-n3nnn(C(=O)N4CCOCC4)c3=O)cc21 [Example 134, 1-(1-methylindol-6-yl)-4-(morpholine-4-carbonyl)tetrazol-5-one], the EC50 (human CB2 receptors) is reported as 8 nM and the EC50 (human CB1 receptors) is reported as greater than 10 µM.
With O=C(N1CCOCC1)n1nnn(-c2cccc(Br)c2)c1=O [Example 135, 1-(3-bromophenyl)-4-(morpholine-4-carbonyl)tetrazol-5-one] the EC50 (human CB2 receptors) was 7 nM and the EC50 (human CB1 receptors) was greater than 10 µM.
C[C@@H]1CN(C(=O)n2nnn(-c3cccc(Cl)c3)c2=O)C[C@H](C)O1 [Example 136, 1-(3-chlorophenyl)-4-[(2R,6S)-2,6-dimethylmorpholine-4-carbonyl]tetrazol-5-one] was tested, and the EC50 (human CB2 receptors) was 507 nM and the EC50 (human CB1 receptors) was greater than 10 µM.
CC1CN(C(=O)n2nnn(-c3cccc(Cl)c3)c2=O)CC(C)O1 (centres unmarked) [Example 137, 1-(3-chlorophenyl)-4-(2,6-dimethylmorpholine-4-carbonyl)tetrazol-5-one] was tested, and the EC50 (human CB2 receptors) was 130 nM and the EC50 (human CB1 receptors) was greater than 10 µM.
Work on CC1(C)CCN(C(=O)n2nnn(-c3cccc(Cl)c3)c2=O)C1 [Example 138, 1-(3-chlorophenyl)-4-(3,3-dimethylpyrrolidine-1-carbonyl)tetrazol-5-one] yielded an EC50 (human CB2 receptors) of 5 nM and an EC50 (human CB1 receptors) greater than 10 µM.
